Assay: xn = mol fraction of the nth substance listed
Conditions: 100.7 kPa, Liquid; for speed of sound: Frequency=3 MHz, Sing-around technique in a fixed-path interferometer; for mass density: Vibrating tube method

CCCCCCn1cc[n+](C)c1.F[P-](F)(F)(F)(F)F [1-hexyl-3-methylimidazolium hexafluorophosphate] + C1CCOC1
Conditions | mass density [kg/m3] | speed of sound [m/s]
293.15 K, x1 = 0.1036 | 1001.33 | 1328.7
293.15 K, x1 = 0.2002 | 1074.85 | 1349.2
293.15 K, x1 = 0.2868 | 1123.69 | 1366.6
293.15 K, x1 = 0.4134 | 1175.92 | 1385.4
293.15 K, x1 = 0.5222 | 1209.22 | 1398.2
293.15 K, x1 = 0.6239 | 1233.91 | 1408.8
293.15 K, x1 = 0.6951 | 1248.83 | 1414.7
293.15 K, x1 = 0.7978 | 1267.15 | 1423.7
293.15 K, x1 = 0.8953 | 1282.62 | 1430.4
293.15 K, x1 = 1 | 1296.72 | 1437.7
298.15 K, x1 = 0.1036 | 996.523 | 1308.8
298.15 K, x1 = 0.2002 | 1070.1 | 1330.9
298.15 K, x1 = 0.2868 | 1119.03 | 1348.8
298.15 K, x1 = 0.4134 | 1171.43 | 1370
298.15 K, x1 = 0.5222 | 1204.92 | 1383.3
298.15 K, x1 = 0.6239 | 1229.78 | 1394.6
298.15 K, x1 = 0.6951 | 1244.72 | 1400.1
298.15 K, x1 = 0.7978 | 1263.02 | 1409.8
298.15 K, x1 = 0.8953 | 1278.55 | 1417.1
298.15 K, x1 = 1 | 1292.62 | 1424.3
303.15 K, x1 = 0.1036 | 991.33 | 1287.5
303.15 K, x1 = 0.2002 | 1065.16 | 1311.7
303.15 K, x1 = 0.2868 | 1114.11 | 1331.2
303.15 K, x1 = 0.4134 | 1166.92 | 1352.9
303.15 K, x1 = 0.5222 | 1200.49 | 1367.7
303.15 K, x1 = 0.6239 | 1225.49 | 1379.7
303.15 K, x1 = 0.6951 | 1240.35 | 1386.4
303.15 K, x1 = 0.7978 | 1258.87 | 1395.8
303.15 K, x1 = 0.8953 | 1274.54 | 1403.8
303.15 K, x1 = 1 | 1288.61 | 1411.5
308.15 K, x1 = 0.1036 | 986.423 | 1267.3
308.15 K, x1 = 0.2002 | 1060.21 | 1293.6
308.15 K, x1 = 0.2868 | 1109.47 | 1314.3
308.15 K, x1 = 0.4134 | 1162.51 | 1338.2
308.15 K, x1 = 0.5222 | 1196.52 | 1353.7
308.15 K, x1 = 0.6239 | 1221.41 | 1365.4
308.15 K, x1 = 0.6951 | 1236.28 | 1372.3
308.15 K, x1 = 0.7978 | 1255.02 | 1382.1
308.15 K, x1 = 0.8953 | 1270.73 | 1390.9
308.15 K, x1 = 1 | 1284.72 | 1399
313.15 K, x1 = 0.1036 | 981.583 | 1247
313.15 K, x1 = 0.2002 | 1055.56 | 1275.7
313.15 K, x1 = 0.2868 | 1105.02 | 1298
313.15 K, x1 = 0.4134 | 1158.19 | 1322.6
313.15 K, x1 = 0.5222 | 1192.16 | 1339.2
313.15 K, x1 = 0.6239 | 1217.23 | 1351.9
313.15 K, x1 = 0.6951 | 1232.35 | 1358.4
313.15 K, x1 = 0.7978 | 1251.08 | 1369.7
313.15 K, x1 = 0.8953 | 1266.85 | 1379.6
313.15 K, x1 = 1 | 1280.82 | 1386.9
318.15 K, x1 = 0.1036 | 976.176 | 1226.8
318.15 K, x1 = 0.2002 | 1050.65 | 1257.8
318.15 K, x1 = 0.2868 | 1100.21 | 1281.7
318.15 K, x1 = 0.4134 | 1153.59 | 1307.3
318.15 K, x1 = 0.5222 | 1187.55 | 1324.1
318.15 K, x1 = 0.6239 | 1212.63 | 1337.8
318.15 K, x1 = 0.6951 | 1227.99 | 1345.7
318.15 K, x1 = 0.7978 | 1246.87 | 1357.4
318.15 K, x1 = 0.8953 | 1262.74 | 1367.7
318.15 K, x1 = 1 | 1276.37 | 1375
323.15 K, x1 = 0.1036 | 971.026 | 1207.5
323.15 K, x1 = 0.2002 | 1045.83 | 1240.6
323.15 K, x1 = 0.2868 | 1095.6 | 1265.7
323.15 K, x1 = 0.4134 | 1148.94 | 1291.2
323.15 K, x1 = 0.5222 | 1183.5 | 1309.2
323.15 K, x1 = 0.6239 | 1208.58 | 1323.8
323.15 K, x1 = 0.6951 | 1224.2 | 1332.8
323.15 K, x1 = 0.7978 | 1243.02 | 1345.3
323.15 K, x1 = 0.8953 | 1258.69 | 1355.6
323.15 K, x1 = 1 | 1272.45 | 1363.3

Source: the NIST ThermoML archive (doi:10.1016/j.jct.2015.02.011)
